From patent US20260015341A1, “PI3K INHIBITOR, PREPARATION METHOD THEREFOR, AND USE THEREOF” (HINOVA PHARMACEUTICALS INC., priority 2022, published 2026)

Assays:
[1] = tested on: T47D cells; assay: Inhibitory effects on the proliferation of T47D cells (CellTiter-Glo); assay type: cell-based; settings: 7 days
Method: Experimental Example 3: Experiment of Inhibitory Effects on the Proliferation of T47D Cells
T47D cells (ATCC. #HTB-133) were diluted with RPMI 1640 (Gibco #22400-089) containing 10% FBS (Hyclone #SH30084.03), seeded in 96-well plate (Biosharp #BS-MP-96W) at 1000 cells/well, and then cultured for 24 h. Then, gradiently diluted compounds were added (starting at a final concentration of 10 μM, 3-fold dilution, 9 dose concentrations), and the final volume was adjusted to 150 μL/well. The plate was incubated at 37° C. under […] for 7 days. After the cultivation was completed, CellTiter-Glo reagent (Promega #G7573) was added at 75 μL/well, and then the plate was further incubated at 25° C. for 10 min. After that, the chemiluminescence value was read using an instrument.
The results are shown in the T47D IC50 column in Table 2.

[2] = target: PI3Kα[WT]/[E542K]/[E545K]/[H1047R]/PI3Kβ/γ/δ; assay: PI3K enzyme activity assay (ADP-Glo); assay type: biochemical; settings: PI3K kinase reaction, isoform not given
Method: Experimental Example 1: PI3Kα[WT]/[E542K]/[E545K]/[H1047R]/PI3Kβ/γ/δ Enzyme Activity Assay
PI3Kα[WT], PI3Kα[E542K], PI3Kα[E545K], PI3Kα[H1047R], PI3Kβ, PI3Kγ and PI3Kδ kinase reaction was performed in 384-well plate (PerkinElmer, #6008280), with a reaction system of 4 μL. PI3Kα[WT] enzyme solution (Promega, #V1721) or PI3Kα[E542K] enzyme solution (CarnaBio, #11-413-20N) or PI3Kα[E545K] enzyme solution (CarnaBio, #11-414-20N) or PI3Kα[H1047R] enzyme solution (Promega, #V1741) or PI3Kβ enzyme solution (Promega, #V1751) or PI3Kγ enzyme solution (ThermoFisher, #PV4786) or PI3Kδ enzyme solution (ThermoFisher, #PV6451) were added to 384-well plate, and then gradiently diluted compounds were added (starting at a final concentration of 10 μM, 3-fold dilution, 10 doses), followed by adding PIP2: 3PS (Promega, #V1701) and ATP solution (Promega, #V915B) to the plate. After incubation at 25° C. for 1 h, ADP-Glo reagent buffer (Promega, #V9102) was added to each well. The plate was sealed and incubated at 25° C. for 40 min, and then 10 μL of ADP-Glo detection buffer (Promega, #V9102) was added to each well. After incubating at 25° C. for 40 min, the chemiluminescence value was read using an instrument.
The experimental results are shown in the ADP Glo IC50 column in Table 2.

[3] = tested on: MCF-10A cells; assay: Inhibitory effects on the proliferation of MCF-10A cells (CCK8); assay type: cell-based; settings: 6 days
Method: Experimental Example 2: Experiment of Inhibitory Effects on the Proliferation of MCF-10A Cells
MCF-10A cells (Cobioer Bio. #CBP60419MCF) were diluted with complete medium (Cobioer Bio. #CBP60419), seeded in 96-well plate (Corning #3599) at 500 cells/well, and then cultured for 24 h. Then, gradiently diluted compounds were added (starting at a final concentration of 10 μM, 3-fold dilution, 9 dose concentrations), and the final volume was adjusted to 100 μL/well. The plate was incubated at 37° C. under 5% CO2 for 6 days. After the cultivation was completed, CCK8 reagent (Signalway Antibody Bio. #CP002) was added at 10 μL/well, and then the plate was further incubated at 37° C. under 5% CO2 for 2-3 hours. The OD450 nm value was obtained by a microplate reader.
The results are shown in the MCF-OA IC50 column in Table 2.

Row | IC50 ([1]; Homo sapiens, 168 h) [nM] | IC50 [2] [nM] | SMILES | IC50 ([3]; Homo sapiens, 144 h) [nM] | IC50 [1] [nM] | IC50 [3] [nM]
1 | > 5000 | > 5000 | Cc1cc([C@@H](C)Nc2ccccc2S(N)(=O)=O)c2oc(-c3ccc(F)cc3F)cc(=O)c2c1 [Compound 27, (R)-2-((1-(2-(2,4-difluorophenyl)-6-methyl-4-oxo-4H-chromen-8-yl)ethyl)amino)benzenesulfonamide] | > 5000 |  | 
2 | < 1000 | 1000 to 5000 | Cc1cc([C@@H](C)Nc2ccccc2NS(C)(=O)=O)c2oc(-c3ccc(F)cc3F)cc(=O)c2c1 [Compound 28] | > 5000 |  | 
3 | 1000 to 5000 | < 1000 | Cc1cc([C@@H](C)Nc2ccccc2C(=O)O)c2nc(-c3ccc(F)cc3F)cc(=O)n2c1 [Compound 41, (R)-2-((1-(2-(2,4-difluorophenyl)-7-methyl-4-oxo-4H-pyrido[1,2-a]pyrimidin-9-yl)ethyl)amino)benzoic Acid] | > 5000 |  | 
4 |  | 1000 to 5000 | Cc1cc([C@@H](C)Nc2ccnn2C)c2oc(-c3ccc(F)cc3F)cc(=O)c2c1 [Compound 42] |  |  | 
5 | < 1000 | < 1000 | Cc1cc([C@@H](C)Nc2ccccc2C(=O)O)c2oc(-c3ccc4c(c3)OC(F)(F)O4)cc(=O)c2c1 [Compound 43] | > 5000 |  | 
6 | < 1000 | < 1000 | Cc1cc([C@@H](C)Nc2ccc(Cl)nc2C(=O)O)c2nc(-c3ccc(F)cc3F)n(C)c(=O)c2c1 [Compound 44] | > 5000 |  | 
7 | < 1000 | < 1000 | Cc1cc([C@@H](C)Nc2ccccc2C(=O)O)c2nc(-c3ccc(F)cc3F)n(C)c(=O)c2c1 [Compound 45] | > 5000 |  | 
8 | < 1000 | < 1000 | Cc1cc([C@@H](C)Nc2ccc(Cl)nc2C(=O)O)c2oc(-c3ccc4c(c3)OC(F)(F)O4)cc(=O)c2c1 [Compound 46] | > 5000 |  | 
9 | 1000 to 5000 | 1000 to 5000 | [2H]C([2H])([2H])NC(=O)c1ncccc1N[C@H](C)c1cc(C)cc2c(=O)cc(-c3ccc(F)cc3F)oc12 [Compound 48, (R)-3-((1-(2-(2,4-difluorophenyl)-6-methyl-4-oxo-4H-chromen-8-yl)ethyl)amino)-N-(methyl-d3)picolinamide] | > 5000 |  | 
10 | > 5000 | 1000 to 5000 | Cc1cc([C@@H](C)Nc2cccc3c2C(=O)NC3=O)c2oc(-c3ccc(F)cc3F)cc(=O)c2c1 [Compound 55] | > 5000 |  | 
11 | > 5000 | < 1000 | Cc1cc([C@@H](C)Nc2ccccc2C(O)C(F)(F)F)c2oc(-c3ccc(F)cc3F)cc(=O)c2c1 (stereo partly drawn) [Compound 57, 2-(2,4-difluorophenyl)-6-methyl-8-((1R)-1-((2-(2,2,2-trifluoro-1-hydroxyethyl)phenyl)amino)ethyl)-4H-chromen-4-one] | > 5000 |  | 
12 | < 1000 | < 1000 | Cc1cc([C@@H](C)Nc2ccccc2C(=O)O)c2nc(-c3cc(F)ccc3F)n(C)c(=O)c2c1 [Compound 59] | > 5000 |  | 
13 | < 1000 | < 1000 | Cc1cc([C@@H](C)Nc2ccc(Cl)nc2C(=O)O)c2nc(-c3cc(F)ccc3F)n(C)c(=O)c2c1 [Compound 60] | > 5000 |  | 
14 | 1000 to 5000 | < 1000 | Cc1cc([C@@H](C)Nc2ccc[nH]c2=O)c2oc(-c3ccc(F)cc3F)cc(=O)c2c1 [Compound 62] | > 5000 |  | 
15 | 1000 to 5000 | < 1000 | Cc1cc([C@@H](C)Nc2cccc(F)c2C(=O)O)c2nc(-c3ccc(F)cn3)n(C)c(=O)c2c1 [Compound 70] | > 5000 |  | 
16 | 1000 to 5000 | < 1000 | Cc1cc([C@@H](C)Nc2cccc(F)c2C(=O)O)c2nc(-c3ccc(F)cc3)n(C)c(=O)c2c1 [Compound 72] | > 5000 |  | 
17 | > 5000 | > 5000 | Cc1cc([C@@H](C)NC2CCC(=O)NC2=O)c2oc(-c3ccc(F)cc3F)cc(=O)c2c1 (stereo partly drawn) [Compound 117] | > 5000 |  | 

The remaining lines, values behind:

Row | SMILES | IC50 ([1]; Homo sapiens, 168 h) [nM] | IC50 [2] [nM] | IC50 ([3]; Homo sapiens, 144 h) [nM] | IC50 [1] [nM] | IC50 [3] [nM]
18 | Cc1cc([C@@H](C)Nc2ccccc2C(=O)O)c2nc(N3CCC(C)(C)CC3)n(C)c(=O)c2c1 [Compound 6, (R)-2-((1-(2-(4,4-dimethylpiperidin-1-yl)-3,6-dimethyl-4-oxo-3,4-dihydroquinazolin-8-yl)ethyl)amino)benzoic Acid] | < 1000 | < 1000 |  |  | 
19 | Cc1cc([C@@H](C)Nc2ccccc2C(=O)O)c2nc(-c3c(F)cccc3F)n(C)c(=O)c2c1 [Compound 37, (R)-2-((1-(2-(2,6-difluorophenyl)-3,6-dimethyl-4-oxo-3,4-dihydroquinazolin-8-yl)ethyl)amino)benzoic Acid] |  | < 1000 |  |  | 
20 | Cc1ccc(N[C@H](C)c2cc(C)cc3c(=O)n(C)c(-c4c(F)cccc4F)nc23)c(C(=O)O)c1 [Compound 38] |  | < 1000 |  |  | 
21 | Cc1cc([C@@H](C)Nc2ccc(Cl)nc2C(=O)O)c2nc(-c3c(C)nn(C)c3C)n(C)c(=O)c2c1 [Compound 53] | < 1000 | < 1000 | 1000 to 5000 |  | 
22 | Cc1cc([C@@H](C)Nc2ccccc2C(=O)O)c2oc(C3CCC(F)(F)CC3)cc(=O)c2c1 [Compound 58, (R)-2-((1-(2-(4,4-difluorocyclohexyl)-6-methyl-4-oxo-4H-chromen-8-yl)ethyl)amino)benzoic Acid] | < 1000 | < 1000 | > 5000 |  | 
23 | Cc1cc([C@@H](C)Nc2ccccc2C(=O)O)c2nc(-c3ccc(F)cc3)n(C)c(=O)c2c1 [Compound 61] | < 1000 | < 1000 | > 5000 |  | 
24 | Cc1cc([C@@H](C)Nc2ccccc2C(=O)O)c2[nH]c(-c3ccc(F)cn3)[n+](C)c(=O)c2c1 [Compound 69] |  | < 1000 |  | < 1000 | > 5000
25 | Cc1cc([C@@H](C)Nc2cccc(F)c2C(=O)O)c2nc(-c3ccc(C(F)(F)F)cn3)n(C)c(=O)c2c1 [Compound 71] | > 5000 | 1000 to 5000 | > 5000 |  | 
26 | C[C@@H](Nc1cccc(F)c1C(=O)O)c1cc(F)cc2c(=O)n(C)c(-c3ccc(F)cn3)nc12 [Compound 73] | 1000 to 5000 | < 1000 | > 5000 |  | 
27 | C[C@@H](Nc1ccc(F)cc1C(=O)O)c1cc(F)cc2c(=O)n(C)c(-c3ccc(F)cn3)nc12 [Compound 77] | < 1000 | < 1000 | > 5000 |  | 
28 | C[C@@H](Nc1ccc(Cl)cc1C(=O)O)c1cc(F)cc2c(=O)n(C)c(-c3ccc(F)cn3)nc12 [Compound 80] | < 1000 | < 1000 | > 5000 |  | 
29 | Cc1cc([C@@H](C)Nc2ccsc2C(=O)O)c2nc(-c3ccc(F)cn3)n(C)c(=O)c2c1 [Compound 82] | > 5000 | < 1000 | > 5000 |  | 
30 | Cc1cc([C@@H](C)Nc2ccc(Cl)nc2C(=O)O)c2nc(-c3ncc(Cl)cn3)n(C)c(=O)c2c1 [Compound 96] |  | < 1000 |  |  | 
31 | C[C@@H](Nc1ccc(Cl)nc1C(=O)O)c1cc(F)cc2c(=O)n(C)c(-c3ncc(Cl)cn3)nc12 [Compound 99] | < 1000 | < 1000 | > 5000 |  | 
32 | C[C@@H](Nc1ccc(Cl)nc1C(=O)O)c1cc(F)cc2c(=O)n(C)c(-c3ncccn3)nc12 [Compound 100] | < 1000 | < 1000 | > 5000 |  | 
33 | COC(=O)c1nc(Cl)ccc1N[C@H](C)c1cc(C)cc2c(=O)n(C)c(-c3ccncc3)nc12 [Compound 103] | < 1000 | < 1000 | > 5000 |  | 
